A short description of data set [1]: In vivo half-life: active compound remaining in mouse blood, deduced from apparent IC50 of plasma in the EphA4-ephrinA5 ELISA. The settings on record: mouse; for blood concentration: 0.8 mg/mouse. On the procedure:
To examine the persistence of compounds in the blood circulation, an approach was devised to determine the concentration of compound in mouse blood by taking advantage of the ELISA measuring inhibition of EphA4-ephrinA5 interaction.
Lipidated compounds dissolved in DMSO were diluted in […] PBS (to a 5% final DMSO concentration) or in […] PBS supplemented with 20 or 40 mg/mL BSA or 6.5 mM methyl-β-cyclodextrin for intravenous or intraperitoneal injection. Neutral pH of the compound solution was verified before injection. PEGylated compounds were dissolved in […] PBS before intraperitoneal injection. Peptides were sterile filtered before administration. Blood from each mouse was collected at 3 different time points after compound injection, the first 2 times by retro-orbital bleeding and the third time by terminal cardiac bleeding under deep anesthesia. Red blood cells were removed by centrifugation from blood treated with heparin and the resulting plasma was frozen in aliquots.
For each time point, a dose-response curves by measuring inhibition of EphA4-ephrinA5 binding at different plasma dilutions was obtained.
For orientation: In an ELISA, binding on a coated surface is turned into a signal by an enzyme label.

Data set [2] concerns the target T1, EphA4 (Homo sapiens, UniProt P54764).
T1 construct: expressed in transfected cells; host or cells: HEK-EphA4 cells (immortalized cells stably transfected)
Put plainly: EphA4 Y596 phosphorylation (activation) in cells stimulated with ephrinA5-Fc. The note with it: EphA4 tyrosine phosphorylation in cells stimulated with ephrin-A5. The class given is cell-based. As for the experimental part: Immortalized cells stably transfected to express FLAG-tagged EphA4 were cultured at 37° C. in Dulbecco's Modified Eagle Medium (DMEM; #10-013-CV, Corning/Thermo Fisher Scientific) containing 10% fetal bovine serum (FBS) with 1% antibiotic-antimycotic solution (#30-004-Cl, Corning). To assess inhibition of EphA4 activation by compounds in cells, the cells were plated in 48-well plates.
For ELISAs, high binding capacity polystyrene 96-well plates were coated overnight at 4° C. with 1 μg/mL goat anti-FLAG antibody (#F3165, Sigma-Aldrich) in 50 μL/well borate buffer (0.1 M boric acid, 0.1 M Na borate, pH 8.7). […] OD450 was then measured.

Data set [3] addresses EphA4 Fc. Put plainly: ELISA measuring inhibition of ephrin-A5 AP binding to immobilized EphA4 Fc. Further details: species or system human or mouse.
For data set [4], the target named is EphA4 Fc. Kind of data set: ELISA inhibition of ephrin-A5 AP binding to EphA4 Fc in the presence of HSA, BSA or methyl-β-cyclodextrin. The settings on record: for IC50: read-out: IC50 ± SE (n) by ELISA with HSA or BSA; for effect of HSA on potency: presence vs absence of 40 mg/mL HSA, tested in parallel.
Source text: To determine whether albumin binding to the lipidated compounds affects their ability to bind EphA4, the effects of delipidated human serum albumin (HSA) on the inhibitory potency of some of the compounds were examined.
A short description of data set [5]: Solubility of lipidated compounds. The class given is physicochemical.
The mark [6] stands for this setting: inhibition of ephrin-A5 AP binding to EphA4 Fc, averages of all experiments, read-out: IC50 ± SE (n) by ELISA.
[7] abbreviates: in vivo, iv, IV (intravenous administration), read-out: In vivo half-life (converted).
Setting [8] is: ELISA inhibition of EphA4-ephrin-A5 interaction.
The mark [9] stands for this setting: in vivo, ip, IP (intraperitoneal administration), read-out: In vivo half-life (converted).
The mark [10] stands for this setting: ELISA inhibition of EphA4-ephrin-A5 interaction, read-out: IC50 (approximate).

Several values for one entry are separate records, joined by “and”; a condition that tells them apart may be missing. Identical values can stand only once. Like-named read-outs stand apart in the source and are kept apart here. Bridge positions count the residues as written; N and C are the ends. Square brackets hold non-standard residues; d marks the D form. Peptide text beside a SMILES is read from it. * marks the point of attachment. Octanoyl = CCCCCCCC(=O)*; βAla = NCCC(=O)O

T1 sequence (P54764 20-986, species assumed): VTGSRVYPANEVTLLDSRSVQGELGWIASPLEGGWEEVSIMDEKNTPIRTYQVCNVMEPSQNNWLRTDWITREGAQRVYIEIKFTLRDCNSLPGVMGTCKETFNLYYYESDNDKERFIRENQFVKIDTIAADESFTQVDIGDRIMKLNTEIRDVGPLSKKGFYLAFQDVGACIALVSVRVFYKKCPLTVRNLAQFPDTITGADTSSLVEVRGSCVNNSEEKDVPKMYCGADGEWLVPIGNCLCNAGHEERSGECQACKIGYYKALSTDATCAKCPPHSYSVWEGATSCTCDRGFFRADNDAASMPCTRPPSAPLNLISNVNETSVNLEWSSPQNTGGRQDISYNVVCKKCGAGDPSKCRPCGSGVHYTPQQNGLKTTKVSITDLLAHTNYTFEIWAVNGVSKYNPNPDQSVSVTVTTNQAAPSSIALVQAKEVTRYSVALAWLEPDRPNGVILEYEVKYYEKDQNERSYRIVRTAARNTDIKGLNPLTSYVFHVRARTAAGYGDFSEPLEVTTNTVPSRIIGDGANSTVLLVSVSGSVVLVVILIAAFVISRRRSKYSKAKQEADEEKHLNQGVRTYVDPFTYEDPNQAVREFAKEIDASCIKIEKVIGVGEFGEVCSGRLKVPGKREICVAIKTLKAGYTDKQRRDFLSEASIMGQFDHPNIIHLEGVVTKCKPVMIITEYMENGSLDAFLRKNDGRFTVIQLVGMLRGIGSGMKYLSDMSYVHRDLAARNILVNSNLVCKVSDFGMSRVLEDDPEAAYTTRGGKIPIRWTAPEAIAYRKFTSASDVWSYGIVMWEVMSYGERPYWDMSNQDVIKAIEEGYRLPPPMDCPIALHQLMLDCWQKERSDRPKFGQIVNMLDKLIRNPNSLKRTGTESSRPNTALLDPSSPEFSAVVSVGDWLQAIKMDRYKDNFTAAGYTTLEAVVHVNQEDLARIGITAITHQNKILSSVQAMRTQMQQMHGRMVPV

For the compound “[Cyc (4,12)] H2N-(βA)PYCVYR(βA)SWSC(Ahx)(Ahx)(Ahx)(Pra/mPEG30-triazole)-OH (XPYCVYRXSWSCXXX; non-natural residues; cyclised or stapled) [APY-d3-PEG4]”, the “t1/2 in mouse circulation” value in data set [1] (in vivo) was ~660 min. Besides, the blood concentration in data set [1] (in vivo, ip) was ~9000 nM; in data set [1] (in vivo, ip, 20 h), ~3000 nM; in data set [1] (in vivo, ip, 48 h), ~400 nM. Moreover, the “inhibitory potency lower than that of APY-d3” value in data set [2] is 2-3 fold.

Take `CCCCCCCC(=O)NCCCC[C@@H]1NC(=O)[C@H](Cc2ccc(O)cc2)NC(=O)[C@H](C(C)C)NC(=O)[C@@H](NC(=O)[C@H](Cc2ccc(O)cc2)NC(=O)[C@@H]2CCCN2C(=O)CCN)CSSC[C@@H](C(=O)NCC(=O)NCC(=O)N[C@@H](CCCNC(=N)N)C(=O)NCC(N)=O)NC(=O)[C@H](CO)NC(=O)[C@H](Cc2c[nH]c3ccccc23)NC(=O)[C@H](CO)NC(=O)CCNC1=O` [Compound 5] (H-[βAla]PYCVYK(Octanoyl)[βAla]SWSCGGRG-NH2; disulfide 4-12): the IC50 (usually the concentration that inhibits the measured activity by half) in data set [3] (setting [6]) came to 26 ± 5 nM; in data set [4] (40 mg/mL delipidated HSA), 75 ± 24 nM. Further, the “% of compound remaining in the blood” value in data set [1] (10 min after intravenous injection, in PBS with 5% DMSO) was 5%. In addition, in data set [1] (setting [7]), the half-life is < 10 min.

`CC[C@H](C)[C@H](NC(=O)[C@H](CC(C)C)NC(=O)[C@H](CCCNC(=N)N)NC(=O)[C@@H]1CSSC[C@H](NC(=O)[C@H](Cc2ccc(O)cc2)NC(=O)[C@@H]2CCCN2C(=O)CCN)C(=O)N[C@@H](C(C)C)C(=O)N[C@@H](Cc2ccc(O)cc2)C(=O)N[C@@H](CCCNC(=N)N)C(=O)NCCC(=O)N[C@@H](CO)C(=O)N[C@@H](Cc2c[nH]c3ccccc23)C(=O)N[C@@H](CO)C(=O)N1)C(=O)N[C@@H](CCC(=O)O)C(=O)N[C@@H](CC(=O)O)C(=O)N[C@H](C(=O)N[C@H]1CSSC[C@@H](C(=O)N[C@@H](CC(C)C)C(=O)N[C@@H](Cc2c[nH]c3ccccc23)C(=O)N[C@@H](CCC(=O)O)C(=O)N[C@@H](CC(=O)O)C(=O)N[C@@H](CC(=O)O)C(N)=O)NC(=O)CNC(=O)[C@H](Cc2c[nH]c3ccccc23)NC(=O)[C@H](CCCNC(=N)N)NC(=O)[C@@H]2CCCN2C(=O)[C@H](CC(C)C)NC1=O)[C@@H](C)CC` [Compound 21] (H-[βAla]PYCVYR[βAla]SWSCRLIEDICLPRWGCLWEDD-NH2; disulfide 4-12, 19-25): the “potency compared with APY-d3” value in data set [3] (setting [8]) was “as potent as APY-d3”. The IC50 in data set [3] (setting [6]) is 18 ± 4 nM; in data set [4] (20 mg/ml BSA) it was 130 ± 10 nM. Also, the “decrease in potency in the presence of bovine serum albumin” value in data set [4] (20 mg/mL bovine serum albumin) is ~8 fold. The half-life in data set [1] (setting [9]) was ~40 min.

For the compound `CCCCCCCCCCCC(=O)N[C@@H](CCC(=O)N[C@@H](CCC(=O)NCCCC[C@H](NC(=O)CNC(=O)CNC(=O)[C@@H]1CSSC[C@H](NC(=O)[C@H](Cc2ccc(O)cc2)NC(=O)[C@@H]2CCCN2C(=O)CCN)C(=O)N[C@@H](C(C)C)C(=O)N[C@@H](Cc2ccc(O)cc2)C(=O)N[C@@H](CCCNC(=N)N)C(=O)NCCC(=O)N[C@@H](CO)C(=O)N[C@@H](Cc2c[nH]c3ccccc23)C(=O)N[C@@H](CO)C(=O)N1)C(=O)NCC(N)=O)C(=O)O)C(=O)O` [Compound 15], the “potency compared with APY-d3” value in data set [3] (setting [8]) is “comparable to APY-d3”. Besides, the IC50 in data set [3] (setting [10]) is ~50 nM and ~30 nM. Also, in data set [4], the “effect of HSA on potency” value is listed as “dramatically decreased”. Moreover, in data set [5], the “solubility” value is “acceptable solubility”. Also, the half-life in data set [1] (setting [9]) was 30 to 60 min; in data set [1] (in vivo, read-out: t1/2 in mouse circulation) it was ~40 min.

Consider `CCCCCCCCCCCC(=O)NCCCC[C@H](NC(=O)CNC(=O)CNC(=O)[C@@H]1CSSC[C@H](NC(=O)[C@H](Cc2ccc(O)cc2)NC(=O)[C@@H]2CCCN2C(=O)CCN)C(=O)N[C@@H](C(C)C)C(=O)N[C@@H](Cc2ccc(O)cc2)C(=O)N[C@@H](CCCNC(=N)N)C(=O)NCCC(=O)N[C@@H](CO)C(=O)N[C@@H](Cc2c[nH]c3ccccc23)C(=O)N[C@@H](CO)C(=O)N1)C(=O)NCC(N)=O` [Compound 12], for which the values for the IC50 in data set [3] (setting [6]) and in data set [4] (40 mg/mL delipidated HSA) were 240 ± 30 nM and 920 ± 180 nM, respectively. In data set [1] (IV (intravenous administration)), the In vivo half-life is ~30 min. Moreover, the half-life in data set [1] (setting [7]) is 30 to 42 min.

Turning to `CC(C)[C@@H]1NC(=O)[C@@H](NC(=O)[C@H](Cc2ccc(O)cc2)NC(=O)[C@@H]2CCCN2C(=O)[C@H](C)N)CSSC[C@@H](C(N)=O)NC(=O)[C@H](CO)NC(=O)[C@H](Cc2c[nH]c3ccccc23)NC(=O)[C@H](CO)NC(=O)CCNC(=O)[C@H](CCCCN)NC(=O)[C@H](Cc2ccc(O)cc2)NC1=O` [Compound 1, APYCVYKβASWSC-NH2] (H-APYCVYK[βAla]SWSC-NH2; disulfide 4-12), the values for the IC50 in data set [3] (setting [6]) and in data set [4] (40 mg/mL delipidated HSA) were 67 ± 10 nM and 55 ± 13 nM, respectively. In data set [4], the “effect of HSA on potency” value is reported as “only a very small effect”.

In the case of `CC(C)[C@@H]1NC(=O)[C@@H](NC(=O)[C@H](Cc2ccc(O)cc2)NC(=O)[C@@H]2CCCN2C(=O)[C@H](C)N)CSSC[C@@H](C(=O)NCC(=O)NCC(=O)N[C@@H](CCCCN)C(=O)NCC(N)=O)NC(=O)[C@H](CO)NC(=O)[C@H](Cc2c[nH]c3ccccc23)NC(=O)[C@H](CO)NC(=O)CCNC(=O)[C@H](CCCNC(=N)N)NC(=O)[C@H](Cc2ccc(O)cc2)NC1=O` [Compound 2], in data set [3] (tested in parallel in the same ELISA), the “potency compared with APY-d2” value is “not significantly different from that for APY-d2”. Further, the “effect of HSA on potency” value in data set [4] is listed as “only a very small effect”.

Consider `CCCCCCCC(=O)NCCCC[C@H](NC(=O)CNC(=O)CNC(=O)[C@@H]1CSSC[C@H](NC(=O)[C@H](Cc2ccc(O)cc2)NC(=O)[C@@H]2CCCN2C(=O)CCN)C(=O)N[C@@H](C(C)C)C(=O)N[C@@H](Cc2ccc(O)cc2)C(=O)N[C@@H](CCCNC(=N)N)C(=O)NCCC(=O)N[C@@H](CO)C(=O)N[C@@H](Cc2c[nH]c3ccccc23)C(=O)N[C@@H](CO)C(=O)N1)C(=O)NCC(N)=O` [Compound 7], for which the IC50 turned out to be 34 ± 6 nM in data set [3] (setting [6]) and 110 ± 30 nM in data set [4] (40 mg/mL delipidated HSA).

`CCCCCCCCCCCCCC(=O)N[C@@H](CCC(=O)N[C@@H](CCC(=O)NCCCC[C@H](NC(=O)CNC(=O)CNC(=O)[C@@H]1CSSC[C@H](NC(=O)[C@H](Cc2ccc(O)cc2)NC(=O)[C@@H]2CCCN2C(=O)CCN)C(=O)N[C@@H](C(C)C)C(=O)N[C@@H](Cc2ccc(O)cc2)C(=O)N[C@@H](CCCNC(=N)N)C(=O)NCCC(=O)N[C@@H](CO)C(=O)N[C@@H](Cc2c[nH]c3ccccc23)C(=O)N[C@@H](CO)C(=O)N1)C(=O)NCC(N)=O)C(=O)O)C(=O)O` [Compound 16]: the “decrease in potency compared to compound 15” value in data set [3] (C14 myristoyl vs C12 lipid, γGluγGlu spacer) is 2-3 fold. Further, the IC50 in data set [3] (setting [10]) is ~80 nM; in data set [3] (setting [6]), 77 ± 9 nM; in data set [4] (40 mg/mL delipidated HSA), 1370 nM. In addition, the “effect of methyl-β-cyclodextrin on inhibitory potency” value in data set [4] (6.5 mM methyl-β-cyclodextrin vs buffer) was “does not affect the inhibitory potency”. Also, the “effect of HSA on potency” value in data set [4] was “dramatically decreased”. The half-life in data set [1] (setting [9]) was ~120 min.

The values are drawn from US20260139007A1, “EPHA4 ANTAGONISTS AND USES THEREOF” (SANFORD BURNHAM PREBYS MEDICAL DISCOVERY INSTITUTE, priority 2023, published 2026).
